Consider two compounds from patent US4600710A, “β-Adrenergic receptor agonist alkylaminoalkyl pyridinemethanol derivatives” (G. D. Searle & Co., priority 1985, dated 1986).

The test system of assay [1] is spontaneously hypertensive rats. Put plainly: Intravenous dose-response studies in conscious spontaneously hypertensive rats. The settings on record: conscious SHR. Format: in vivo, rat. The method, then: Six adult male spontaneously hypertensive rats were anesthetized with ether and instrumented with carotid artery and jugular vein catheters. The rats were allowed to recover from surgery and ether anesthesia for three to five hours. The test compound was administered intravenously in saline at doses of 0.1, 0.2, 0.7, 2, 7, and 20 mg/kg to give cumulative doses of 0.1, 0.3, 1, 3, 10, and 30 mg/kg. At the completion of these injections propranolol, a beta-adrenergic antagonist, was administered intravenously at a dose of 1 mg/kg and the injections of the test compound were repeated. The volume of each injection was 0.1 ml/100 grams of body weight. Mean arterial pressure and heart rate were measured via the carotid artery with a Statham pressure transducer and Gould physiological recorder. Results were analyzed using a paired t-test.

For assay [2] the test system is unchanged. As to the kind of experiment: Oral dosing studies in conscious spontaneously hypertensive rats. In kind it is in vivo, rat. To be noted: conscious SHR, daily oral dosing 100 mg/kg for 3 days. The method, then:
Ten adult male spontaneously hypertensive rats were anesthetized with sodium pentobarbital and instrumented with a carotid arterial catheter. On the following day each rat was tethered in a plastic cage and arterial blood pressure and heart rate were monitored via the arterial catheter continuously for 72 hours. Each rat was dosed intragastrically with 100 mg/kg of the test compound each day for three days. A vehicle treated group (saline) of 10 rats was tested simultaneously. Differences in blood pressure between the treated and vehicle group were analyzed by the Kraskal-Wallis and Wilcoxon rank sum tests.

The test system is the same in assay [3]. Put plainly: Systemic hemodynamics in pentobarbital anesthetized spontaneously hypertensive rats. Format: in vivo, rat. The method, then: Five adult male spontaneously hypertensive rats were anesthetized with sodium pentobarbital and instrumented with a femoral artery catheter for measuring arterial pressure and heart rate. The jugular vein was catheterized for injections and a thermocouple was placed in the aortic arch via the carotid artery for cardiac output measurement by the thermodilution technique. The trachea was cannulated and the rats breathed 100% oxygen. Control readings were taken and the test compound was injected in doses ranging from 0.1 to 30 mg/kg iv. After the 30 mg/kg dose, propranolol was injected iv at a dose of 1 mg/kg. Changes in hemodynamic parameters from control readings were analyzed by the paired t-test.

For the next assay, the target named is T1, β-adrenergic receptor (Rattus norvegicus, UniProt P10608).
T1 construct: Rat cerebellums were homogenized in 20 volumes of ice cold 50 mM Tris-HCl buffer; from tissue; host or cells: rat cerebellum (crude plasma membranes)
Put plainly: Beta-adrenergic receptor binding ([3H]DHA displacement, rat cerebellum plasma membranes). To be noted: rat cerebellum cortex membranes, 1 nM [3H]DHA; read-out: IC50, inhibition of β-adrenergic receptor binding of tritiated dihydroalprenolol. The procedure: Tissue preparation: Rat cerebellum plasma membranes were prepared by the method of U'Prichard et al, (J. Biol. Chem., 253, No. 14, pp. 5090-5102, 1978). Rat cerebellums were homogenized in 20 volumes of ice cold 50 mM Tris-HCl buffer (pH 7.4) with a Tekmar homogenizer. Crude plasma membranes were obtained by centrifugation at 45,000× g for 15 min with an intermediate rehomogenization in fresh buffer. The final pellets were resuspended in ten volumes of 50 mM buffer with 0.25M sucrose.
Binding Assay: Rat cerebellum plasma membrane preparations (10 mg wet weight per ml in a volume of one ml) were incubated with 1 nM [^3 H] DHA in buffer, 1 mM catechol and 0.01% ascorbic acid, either in the presence or absence of various amounts of test substance at room temperature for 20 minutes. Bound and free radioligand were separated by addition of 3.5 ml buffer (0° C.) followed by rapid filtration through Whatman GF/B glass fiber filter. The filter was then washed rapidly with three 3.5 ml buffer (3X). Specific binding was defined as the amount of the [^3 H]DHA bound in the absence of competing ligand minus the amount bound in the presence of 10 uM (±) propranolol (nonspecific binding). […] IC50 (inhibitory concentration -50%) values were calculated from the displacement data after logit-log transformation with least squares linear regression.

Where a name gives a salt, the structure may show the parent alone.

T1 sequence (P10608 whole entry): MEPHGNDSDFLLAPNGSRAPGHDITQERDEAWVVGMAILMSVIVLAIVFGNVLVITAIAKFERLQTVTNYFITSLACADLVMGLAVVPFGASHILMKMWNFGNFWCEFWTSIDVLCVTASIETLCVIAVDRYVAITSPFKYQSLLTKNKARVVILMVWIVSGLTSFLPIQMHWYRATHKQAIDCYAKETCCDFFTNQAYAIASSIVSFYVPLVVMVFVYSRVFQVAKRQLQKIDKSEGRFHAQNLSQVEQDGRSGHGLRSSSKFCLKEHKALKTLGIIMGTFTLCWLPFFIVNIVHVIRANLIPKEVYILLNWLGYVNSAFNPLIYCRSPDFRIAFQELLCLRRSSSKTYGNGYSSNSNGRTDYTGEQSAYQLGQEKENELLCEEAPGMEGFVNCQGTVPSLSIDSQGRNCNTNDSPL

In the case of `CC(C)NCC(O)c1cccnc1` (stereo not drawn) [Example 1B, oxalate salt], the ED25 in assay [1] (Rattus norvegicus, iv, cumulative doses 0.1-30 mg/kg, read-out: calculated intravenous dose reducing mean arterial pressure by 25%) is 37 mg/kg. In assay [2], the “elevation of heart rate” value worked out at 114 beats/min and the “time pressure remained reduced” value was 6 to 10 h. Further, in assay [2] (at 3-4 hours after dosing), the “lowering of mean arterial pressure” value is reported as 39 mmHg. Also, the “total peripheral resistance after compound” value in assay [3] (pentobarbital anesthetized SHR, iv 0.1 to 30 mg/kg, decreased from control 3 units) was found to be 1.1 units. For the same compound, the “cardiac output after compound” value in assay [3] (pentobarbital anesthetized SHR, iv 0.1 to 30 mg/kg, increased from control 72 ml/min) worked out at 92 mL/min. The IC50 at β-adrenergic receptor is 39 µM.
For `CC(C)NCC(O)COc1cccc2ccccc12` (stereo not drawn) [Propranolol, propranolol, reference compound], the “effect of propranolol on blood pressure and heart rate changes produced by the compound of the invention” value in assay [1] (propranolol 1 mg/kg iv) was “attenuated the hypertension and tachycardia”. In assay [3] (propranolol 1 mg/kg iv after the 30 mg/kg dose, anesthetized SHR), the “effect of propranolol on hemodynamic effects (cardiac output, total peripheral resistance) of the compound of the invention” value is “reversed these hemodynamic effects”.

Usually IC50 stands for the concentration that inhibits the measured activity by half.
